# Laboratory results: patent US11814352B2, “Salts formed by 2-(1-acyloxy-n-pentyl) benzoic acid and basic amino acid or aminoguanidine, and preparation method and application thereof” (JIANGSU KANION PHARMACEUTICAL CO., LTD., priority 2018, dated 2023)
# Values joined by “and” are separate entries in the source; they are usually repeats but may differ in a detail not shown here. Equal entries are not always repeated. Marks after values point to notes of the source that are not given here.
# Legend:
# [1] = Solubility test (saturated solubility in water); assay type: physicochemical; conditions: 25±2° C.
# Experimental: Test method: 10 mg of a test sample (solid was ground into fine powder) was weighed and added to a certain amount of solvent at 25±2° C. (the temperature of a water bath is controlled at 25° C.), and the solution was shaken vigorously for 30 s every 5 min. The dissolution was observed within 30 min. When there were no visible solute particles or droplets, the test sample was regarded as completely dissolved.
# [2] = system: ADP induced platelet aggregation; test: In vitro anti-platelet aggregation, ADP induced (turbidimetry, PRP); assay type: cell-based, rabbits; conditions: read-out: IC50 ADP (10 μM); rabbit PRP, inducer ADP 10 μM, 37° C.
# Experimental: (§1) The animals were used for experiments after 1 week.
# (§2) The common carotid artery was separated, and a polyethylene tube was inserted into the common carotid artery to collect blood. […] The upper beige suspension was pipetted to obtain the platelet-rich plasma (PRP). […] The PRP was adjusted with the PPP to make the platelet count at 1×10^8/mL.
# (§3) 260 μL of platelet-rich plasma (PRP) was added into a turbidimetric tube. Then 10 μL of test compounds with different concentrations, positive control drugs or normal saline were separately added, and the plasma was incubated at 37° C. for 5 min. Then 30 μL of inducers were added in sequence. The final concentration of an inducer ADP is 10 μM, and the final concentration of an inducer AA is 1 mM. […] Inhibition rate of platelet aggregation (IRPA)=(platelet aggregation rate of the control group−platelet aggregation rate of the experimental group)/platelet aggregation rate of the control group×100%.
# [3] = system: AA induced platelet aggregation; test: In vitro anti-platelet aggregation, AA induced (turbidimetry, PRP); assay type: cell-based, rabbits; conditions: read-out: IC50 AA (1 mM); rabbit PRP, inducer AA 1 mM, 37° C.
# Experimental: as §1, §2, §3
# [4] = system: arteriovenous bypass thrombosis in rats; test: Effect on arteriovenous bypass thrombosis in rats; assay type: in vivo, SD rats; conditions: 10 mg/kg/day tail vein 7 days
# Experimental: Male SD rats, weighing 250-280 g, purchased from Beijing Vital River Laboratory Animal Technology Co., Ltd., raised in an SPF breeding environment with indoor temperature controlled at 23±2° C., and allowed to freely eat and drink. The total number of the animals is 64.
# Model group: injected with the same volume of normal saline (containing 1% DMSO) through the tail vein, and administered continuously for 7 days. The test was started 2 h after the last dose (n=8).
# The dose of all drugs was 10 mg/kg/day. The drugs were formulated into normal saline solutions containing 1% DMSO, and injected through the tail vein for 7 consecutive days. The test was started 2 hours after the last dose (n=8).
# The rats were intraperitoneally injected with a 3% pentobarbital sodium solution (30 mg/kg). After anesthesia, the rats were immobilized in the supine position, and a median cervical incision was made to separate the right common carotid artery and left external jugular vein. A 6 cm long suture was put in the middle of a polyethylene tube (the suture needs to be weighed before being put in the tube), and the polyethylene tube was filled with heparin saline (50 U/mL). The polyethylene tube was inserted into the separated blood vessels to make the artery and vein form a loop. After 15 min of circulation of the blood flow, the suture was taken out, and the suture with thrombus was collected and weighed immediately. Then, after the suture was dried at room temperature for 24 h, the dry weight was determined. The total weight minus the weight of the suture was the wet weight of the thrombus, and the dry weight minus the weight of the suture was the dry weight of the thrombus.
# [5] = system: MCAO rats; test: Cerebral infarction, cerebral edema and nerve function of rats with focal cerebral ischemia (MCAO); assay type: in vivo, SD rats; conditions: rat, in vivo, iv, 10 mg/kg/day
# Experimental: The total number of the animals was 88.
# Sham operation group: equal volume of normal saline (containing 1% DMSO) (iv. 3 days), TTC, cerebral edema and neurological function score (n=8); […]
# The middle cerebral arteries of the rats were blocked by a suture-occluded method, and reperfused after 2 h. […] All drugs were formulated into normal saline solutions containing 1% DMSO for administration, and the duration of administration was controlled at approximately 1 min. […] 2 h after the last administration, the neurological defect scores were firstly obtained, and then the rats of each group were sacrificed. The whole brains were taken out and weighed (wet weight), TTC stained, and dried to determine the effects of the compounds on cerebral infarction and cerebral edema.
# 2 h after the last administration, the neurological defects of the animals were graded and scored by the Longa's method.
# After the neurobehavioral examination was completed, four coronal incisions were made on the whole brains of the rats on the optic chiasma and 2 mm anteroposterior positions of the optic chiasma. After the whole brains were cut into five slices, the brain slices were quickly placed in 5 ml of phosphate buffer solution containing 2% TTC, and incubated at 37° C. in the dark. In the incubation process, the brain slices were turned once every 5 min. After 10 min of incubation, the brain slices were taken out and pictures were taken with a digital camera (Olympus C-4000, Japan).
# The calculation formula of brain water content is as follows: Water content of brain tissue (%)=(wet weight of brain tissue−dry weight of brain tissue)/wet weight of brain tissue×100%; Cerebral edema rate (%)=water content of brain tissue of each group (%)−water content of brain tissue of sham operation group (%)/water content of brain tissue of sham operation group (%)×100%; Inhibition rate of cerebral edema (%)=(rate of cerebral edema of model group (%)−rate of cerebral edema of administration group (%))/rate of cerebral edema of model group (%)×100%.
# [6] = Pharmacokinetics of metabolites in rat plasma after intravenous injection of I1s; assay type: in vivo, SD male rats; conditions: metabolite in rat plasma after I1s 25 mg/kg tail vein; rats 1-3; listed as M4
# Experimental: (§4) 12 clean SD male rats, provided by Qinglongshan Animal Breeding Farm in Jiangning District, Nanjing. The production license number is SCXK (Jiangsu) 2017-0001. The body weight of the rats ranges from 180 to 220 g. The rats were used after being raised in the laboratory of an experimental animal center for 2 days after purchase, fasted for 12 hours before administration and 6 hours after administration, and were allowed to freely drink during the test period.
# (§5) The concentration of the original drugs and metabolites in the rat blood were determined by LC-MS/MS, and WinNonlin pharmacokinetics professional software and a statistical moment method were used for calculation to obtain the corresponding pharmacokinetic parameters.
# [7] = Concentration of metabolites in rat brain tissue after intravenous injection of I1s; assay type: in vivo; conditions: for Concentration in brain tissue (single rats): listed as M4
# Experimental: as §4, §5
# [8] = as above; assay type: in vivo
# [9] = biological target: hERG potassium channel of CHO-hERG cells (Homo sapiens, UniProt Q12809); test: Effect on hERG potassium channel (automatic patch clamp); conditions: CHO-hERG cells, maximum concentration
# Sequence of hERG potassium channel of CHO-hERG cells (Q12809 whole entry): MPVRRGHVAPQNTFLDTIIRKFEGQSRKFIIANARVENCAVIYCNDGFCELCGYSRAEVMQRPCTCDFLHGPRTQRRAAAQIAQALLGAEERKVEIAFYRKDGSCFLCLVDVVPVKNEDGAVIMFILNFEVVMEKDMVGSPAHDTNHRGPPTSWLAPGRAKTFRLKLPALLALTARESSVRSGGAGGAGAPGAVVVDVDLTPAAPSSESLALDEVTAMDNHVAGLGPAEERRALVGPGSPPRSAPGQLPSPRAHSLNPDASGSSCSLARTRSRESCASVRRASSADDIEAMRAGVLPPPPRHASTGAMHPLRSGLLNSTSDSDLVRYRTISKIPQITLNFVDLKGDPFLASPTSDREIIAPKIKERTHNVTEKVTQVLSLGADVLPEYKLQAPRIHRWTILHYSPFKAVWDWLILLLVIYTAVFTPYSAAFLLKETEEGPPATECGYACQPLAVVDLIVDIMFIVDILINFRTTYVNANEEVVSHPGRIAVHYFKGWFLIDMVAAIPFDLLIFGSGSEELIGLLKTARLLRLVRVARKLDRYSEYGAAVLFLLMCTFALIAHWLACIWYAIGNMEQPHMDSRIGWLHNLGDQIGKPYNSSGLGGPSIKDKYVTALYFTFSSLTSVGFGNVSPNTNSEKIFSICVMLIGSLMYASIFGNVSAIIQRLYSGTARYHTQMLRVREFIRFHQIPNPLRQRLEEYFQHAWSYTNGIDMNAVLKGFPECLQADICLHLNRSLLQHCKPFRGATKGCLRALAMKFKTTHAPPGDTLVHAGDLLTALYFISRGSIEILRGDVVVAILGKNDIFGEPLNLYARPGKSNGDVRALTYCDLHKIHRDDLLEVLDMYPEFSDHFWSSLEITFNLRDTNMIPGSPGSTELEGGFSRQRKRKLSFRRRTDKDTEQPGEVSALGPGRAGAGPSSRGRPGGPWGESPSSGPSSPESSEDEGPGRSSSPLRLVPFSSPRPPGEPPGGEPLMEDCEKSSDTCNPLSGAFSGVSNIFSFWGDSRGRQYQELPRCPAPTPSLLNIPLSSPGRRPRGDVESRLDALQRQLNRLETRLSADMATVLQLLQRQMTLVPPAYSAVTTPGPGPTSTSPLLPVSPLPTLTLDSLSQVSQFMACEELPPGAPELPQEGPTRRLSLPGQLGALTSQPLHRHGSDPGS
# [10] = 0.5 h after intravenous injection of I1s
# [11] = 1 h after intravenous injection of I1s
# [12] = 6 h after intravenous injection of I1s
smiles,measurement,setting,value
"CCCC[C@@H]1OC(=O)c2ccccc21 [(S)-NBP, (S)-butylphthalide]","Saturated solubility in H2O, Mean",[1],540 µg/mL
same,IC50,[2],1290 ± 110 µM
same,IC50,[3],500 ± 40 µM
same,Dry weight of thrombus,[4]; 2 h after last dose,7.44 ± 0.37
same,Wet weight of thrombus,[4]; 2 h after last dose,24.18 ± 1.02
same,Inhibition rate (dry weight of thrombus),[4]; vs model group,25.95^## %
same,Inhibition rate (wet weight of thrombus),[4]; vs model group,33.24^## %
same,Cerebral edema,[5],4.45 ± 4.58%
same,Infarct volume,[5],14.18 ± 2.69%
same,Inhibition rate of cerebral edema,[5],72.28%
same,Inhibition rate of infarct volume,[5],66.12%
same,AUC(0-t),[6],32828.9 ng·h/mL and 40061.1 ng·h/mL and 34160.8 ng·h/mL
same,AUC(0-∞),[6],32988.3 ng·h/mL and 40153.8 ng·h/mL and 34287.8 ng·h/mL
same,Cl,[6],12.631 mL/min/kg and 10.377 mL/min/kg and 12.152 mL/min/kg
same,Cmax,[6],52.5136 µg/mL and 69.7952 µg/mL and 65.7002 µg/mL
same,Vz,[6],3.704 L/kg and 2.6838 L/kg and 3.6105 L/kg
same,Concentration in brain tissue (single rats),[7]; [10],556.35 ng/g and 627.76 ng/g and 633.25 ng/g
same,Concentration in brain tissue (single rats),[7]; [11],131.66 ng/g and 119.84 ng/g and 388.42* ng/g
same,Concentration in brain tissue (single rats),[7]; [12],27.06 ng/g and 30.85 ng/g and 51.78 ng/g
same,Passage through the blood-brain barrier,[7]; detected in rat brain tissue after iv I1s,could all pass through the blood-brain barrier
same,"Concentration in brain tissue, Mean",[8]; [10],605.79 ng/g
same,"Concentration in brain tissue, Mean",[8]; [11],125.75 ng/g
same,"Concentration in brain tissue, Mean",[8]; [12],36.56 ng/g
same,inhibition rate of hERG potassium channel at the maximum concentration,[9],41.45%
